Assay results: patent publication US11963998B2, “Modulation of heparin-binding epidermal growth factor activity for tympanic membrane healing” (The Board of Trustees of the Leland Stanford Junior …, priority 2013, dated 2024)

Legend:
[1] = system: acute tympanic perforations in mice; assay: HB-EGF inhibitor applied to acute tympanic membrane perforations (chronic TM perforation model); format: in vivo; settings: for Perforations open at 2 months / Perforations open at 3 months: mice, OSU8-1 10 mM on gel foam over seven days
Experimental: EGFR ligand shedding can be inhibited to create a chronic tympanic membrane perforation model. Subtotal perforations were created in the pars tensa of TMs in 20 mice using a curved needle. OSU8.1 (10 mM), a selective HB-EGF inhibitor (see Tokumaru et al. (2000) J. Cell Biol.), was injected onto gel foam (placed through and onto the perforation) over seven days. Mice were sacrificed at time points (Day 2, 7, 14, 30, 44, 60 and 90) to observe the effects on keratinocyte migration. The contralateral ear was used as a control with saline placed onto gel foam. All of these were closed within 2 weeks. Five of seven (71%) of the treatment ears were open at three months. Perforation size was stable over three months (using ImageJ to calculate the perforation area as a percentage of the pars tensa area). A larger cohort was undertaken with 87.9% (n=58) having chronic perforations at 3 months.
100% of HB-EGF inhibitor treated perforations were present at two months compared to 5% of controls and 71% were present at three months compared to 5% of controls

[2] = system: chronic perforations in mice ears; assay: HB-EGF treatment of chronic tympanic membrane perforations; format: in vivo; settings: 40 μl gel, 5 μg/ml, sustained release chitosan-based polymer; at 4 weeks; p<0.01 vs polymer only
Experimental: HB-EGF heals chronic tympanic membrane perforations. When a cohort of chronic perforations in mice ears were treated with 40 μl of a gel containing recombinant HB-EGF at a concentration of 5 μg/ml (sustained release dose via a bioabsorbable chitosan-based polymer) 92% (22 of 24) healed, compared to 38% (10 of 26) of controls (polymer only) at 4 weeks (p<0.01). […] This is the first growth factor treatment tested in an animal model of chronic perforation that has shown significant benefit over control.

[3] = system: chronic perforations and ET occlusion in mice; assay: HB-EGF treatment of chronic TM perforations with Eustachian tube occlusion; format: in vivo
Experimental: HB-EGF heals chronic tympanic membrane perforations with Eustachian tube occlusion. An existing rat model of ET occlusion (see Herda et al. (2002) Laryngoscope 112:1657-62) was adapted to the mouse and has since been performed in 80 live mice with success. The ET occlusion was performed with the chronic perforation model described above. This created a wet sterile discharging perforation at 3 months. This model mimics the human condition of chronic perforation combined with ET dysfunction.
When a cohort of mice with this model (chronic perforations and ET occlusion) were treated with recombinant HB-EGF, 40 μl at a concentration of 5 μg/ml (sustained release dose via a bioabsorbable chitosan polymer) 94% (18 of 19) healed compared to 9% (2 of 23) of controls (polymer only) at 6 weeks (p<0.01). […] The ability to overcome this critical step in TM chronic wound healing using HB-EGF to activate EGFR ectodomain ligand shedding in the presence of middle ear effusions and ET occlusion is useful in treating patients with chronic tympanic membrane perforation.

[4] = system: chronic perforation model with ET occlusion inoculated with Pseudomonas aeruginosa; assay: HB-EGF treatment in animal model for chronic suppurative otitis media (CSOM); format: in vivo, mice; settings: polymer and HB-EGF at 5 μg/ml
Description: Testing in an animal model for chronic suppurative otitis media. After creating the chronic perforation model with ET occlusion, Pseudomonas aeruginosa (dose of 6×10^9 colony forming units per ml) were inoculated into the middle ear through the existing chronic perforations. At 2 weeks the ear fluid was collected and sent for polymerase chain reaction (PCR) to confirm the presence of bacteria. This positive PCR validated the CSOM model. The mice were then divided into two cohorts. One received polymer only. The other received polymer and HB-EGF at 5 μg/ml (same dose used in above models). 100% of the HB-EGF group healed (16 of 16) compared to 41% (7/17) in the control group (p<0.01). In the control group the healing was also different when it did occur. The TM was often very thin and transluscent compared to a slightly opaque normal TM. […] The ability to still overcome this critical step in TM chronic wound healing using HB-EGF to activate EGFR ectodomain ligand in the closest model to human CSOM validates the method of treatment.

Molecule | chronic perforations at 3 months, larger cohort ([1]; larger cohort, n=58, 3 months) | Perforations open at 2 months [1] | Perforations open at 2 months ([1]; listed as HB-EGF inhibitor) | Perforations open at 3 months ([1]; 3 months) | Perforations open at 3 months ([1]; 3 months, listed as HB-EGF inhibitor) | Perforations open at 3 months ([1]; 3 months, listed as OSU8.1) | Perforation size (perforation area as a percentage of the pars tensa area) ([1]; over three months, ImageJ) | chronic perforations healed [2] | chronic perforations with ET occlusion healed ([3]; 40 μl at 5 μg/ml, sustained release chitosan polymer, at 6 weeks, p<0.01 vs polymer only) | histology of perforation closure ([3]; chronic perforations and ET occlusion model) | appearance of healing in CSOM model [4] | perforations healed in CSOM model ([4]; p<0.01 vs polymer only)
CNC(=O)[C@@H](NC(=O)[C@H](CC(C)C)[C@H](C)C(=O)NO)c1ccccc1 [OSU8-1] | 87.9% | 100% | 100% | 71% | 71% | 71% | stable |  |  |  |  | 
HB-EGF: recombinant heparin binding epidermal growth factor, delivered in a bioabsorbable chitosan-based polymer gel at 5 μg/ml (protein, UniProt Q99075 63-148, looked up, Heparin-binding EGF-like growth factor in chitosan-based gel) Heparin-binding EGF-like …: DLQEADLDLLRVTLSSKPQALATPNKEEHGKRKKKGKGLGKKRDPCLRKYKDFCIHGECKYVKELRAPSCICHPGYHGERCHGLSL |  |  |  |  |  |  |  | 92% | 94% | close with thick layer of keratinocytes | appeared normal | 100%
